Experimental data from US9938301B2, “Dihydropyrimido fused ring derivative as HBV inhibitor” (QILU PHARMACEUTICAL CO., LTD., priority 2014, dated 2018).
Where two headings read alike, the source gives them in different places.

Tested on: HBV DNA in HepG2.2.15 cells
Assay: HBV in vitro assay quantitive qPCR test
Type: cell-based
Conditions: Hepatitis B virus, HepG2.2.15 cells
Procedure: • 1 Purpose of the test: • The content of HBV DNA in HepG2.2.15 cells was detected by real time quantitive qPCR test to evaluate an inhibitory action of the compound on HBV with an EC50 value of the compound as an indicator. • 2 Experimental materials: • 2.1 Cell lines: HepG2.2.15 Cells • HepG2.2.15 cell culture media (DMEM/F12, Invitrogen-11330057; 10% serum, Invitrogen-10099141; 100 units/ml Penicillin and 10 μg/ml Streptomycin, Invitrogen-15140122; 1% non-essential amino acid, Invitrogen-1140076; 2 mM L-GLUTAMINE, Invitrogen-25030081; 300 μg/ml Geneticin, Invitrogen-10131027 • 2.2 Reagents: • trypsin (Invitrogen-25300062) • DPBS (Hyclone-SH30028.01B) • DMSO (Sigma-D2650-100ML) • High-Throughput DNA Purification Kit (QIAamp 96 DNA Blood Kit, Qiagen-51162) • Quantitative Fast Start Universal Probe Reagent (FastStart Universal Probe Master, Roche-04914058001) • 2.3 Materials and Instruments: • 96-well cell culture plate (Corning-3599) • CO2 Incubator (HERA-CELL-240) • Optical Sealing Membrane (ABI-4311971) • Quantitative PCR 96-well Plate (Applied Biosystems-4306737) • Fluorescent Quantitative PCR Instrument (Applied Biosystems-7500 real time PCR system) • 3. Testing steps and Methods: • 3.1 HepG2.2.15 cells (4×10^4 cells/well) were planted into a 96-well plate, and at 37° C., 5% CO2 cultured overnight. • 3.2 On Day 2, the compounds were diluted in totally 8 concentrations with a dilution gradient of three times. The compounds at different concentrations were added into the culture wells in duplicate. The final concentration of DMSO in the culture media was 1%. 1 μM GLS4 was used as 100% inhibition control; 1% DMSO as 0% inhibition control. • 3.3 On Day 5, replacing with the fresh culture media containing the compound was performed. • 3.4 On Day 8, the culture media in the culture wells was collected, and DNA was extracted with a High-Throughput DNA Purification Kit (Qiagen-51162), See Specification of the product for specific steps. • 3.5 Preparation of PCR Reaction Mixture was shown in Table 1:
• 3.6 To each well of a 96-well PCR plate was added 15 μl reaction mixture, and then to each well was added 10 μl sample DNA or HBV DNA standard. • 3.7 The reaction conditions of PCR were: heating at 95° C. for 10 minutes; then at 95° C. denaturing for 15 seconds, and at 60° C. extending for 1 minute, totally 40 cycles. • 3.8 Data Analysis: • 3.8.1 The inhibition percentage was calculated: % Inh.=[1−(DNA copy number in sample−DNA copy number in 1 μM GLS4)/(DNA copy number in DMSO control−DNA copy number in 1 μM GLS4)]×100. • 3.8.2 Calculating EC50: the concentration of the compound for 50% inhibition of HBV (EC50) was calculated by using GraphPad Prism Software. • 4 Testing Results • The testing results were shown in Table 3: […]

[1] = qPCR assay, read-out: Concentration for 50% inhibition of HBV (EC50)value
[2] = summary list of target compounds, Examples 166-220 (values of Table 3), read-out: BIOACTIVITY (inhibitory actions on HBV DNA, EC50)

| SMILES | EC50 [1] [nM] | EC50 [2] [nM] |
| --- | --- | --- |
| COC(=O)C1=C2C[C@H](NS(=O)(=O)NC(C)(C)C)CN2C(c2nccs2)=N[C@H]1c1ccc(F)c(F)c1F [Example 210] | < 100 | < 100 |
| COC(=O)C1=C2C[C@H](NS(=O)(=O)N3CCC3)CN2C(c2nccs2)=N[C@H]1c1ccc(F)c(F)c1F [Example 212] | 100 to 500 | 100 to 500 |
| CCS(=O)(=O)N[C@H]1CC2=C(C(=O)OC)[C@H](c3cccc(F)c3Cl)N=C(c3nccs3)N2C1 [Example 213] | < 100 | < 100 |
| CCCCNS(=O)(=O)N[C@H]1CC2=C(C(=O)OC)[C@H](c3ccc(F)c(F)c3F)N=C(c3nccs3)N2C1 [Example 214] | < 100 | < 100 |
| COC(=O)C1=C2C[C@H](NS(=O)(=O)N(C)C)CN2C(c2nccs2)=N[C@H]1c1cccc(F)c1Cl [Example 215] | < 100 | < 100 |
| COC(=O)C1=C2C[C@H](NS(=O)(=O)NC(C)C)CN2C(c2nccs2)=N[C@H]1c1cccc(F)c1Cl [Example 216] | < 100 | < 100 |
| COC(=O)C1=C2C[C@H](NC(=O)OC(C)(C)C)CN2C(c2nccs2)=N[C@H]1c1cccc(F)c1Cl [Example 217] | < 100 | 1000 to 5000 |
| COC(=O)C1=C2C[C@H](NS(N)(=O)=O)CN2C(c2nccs2)=N[C@H]1c1cccc(F)c1Cl [Example 218] | < 100 | < 100 |
| COC(=O)C1=C2C[C@H](NS(N)(=O)=O)CN2C(c2ncc(F)cc2F)=N[C@H]1c1ccc(F)c(F)c1F [Example 219] | 100 to 500 | 100 to 500 |
| COC(=O)C1=C2C[C@H](NS(N)(=O)=O)CN2C(c2nccs2)=N[C@H]1c1cccc(F)c1F [Example 220] | < 100 | < 100 |
